This note sets out measurements from publication PMC4532830, “Crystal structure, biochemical and cellular activities demonstrate separate functions of MTH1 and MTH2” (Nature Communications, 2015).

Read-outs that look alike come from different tables or passages of the source.

One data set has as its target T1, NUDT18 (Homo sapiens, UniProt Q6ZVK8).
T1 construct: recombinant, cDNA codon-optimized for E. coli in pET28a(+); His-tag removed by TEV or thrombin
T1 sequence (Q6ZVK8 1-323): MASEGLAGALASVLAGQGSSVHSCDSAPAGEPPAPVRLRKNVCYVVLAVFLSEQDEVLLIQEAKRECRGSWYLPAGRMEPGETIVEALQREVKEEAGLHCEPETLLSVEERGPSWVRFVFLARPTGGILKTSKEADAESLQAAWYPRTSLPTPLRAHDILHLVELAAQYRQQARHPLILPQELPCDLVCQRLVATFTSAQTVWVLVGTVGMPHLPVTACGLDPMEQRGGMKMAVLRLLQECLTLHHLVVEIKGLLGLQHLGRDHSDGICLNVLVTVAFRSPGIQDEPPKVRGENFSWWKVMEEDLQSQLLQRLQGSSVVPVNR
The data set can be described thus: phosphate release, malachite green assay. It counts as biochemical. The conditions noted are these: 50 uM nucleotide, 25 nM enzyme, 22 C, 30 min, pH 8.0, 10 mM Mg acetate; which of 8-oxo-dGTP or 8-oxo-dGDP belongs to NUDT18 is not spelt out.

For the next data set, the target named is T2, MTH1 (Homo sapiens, UniProt P36639).
T2 construct: gene NUDT1
Particulars: pH 7.5 but methods buffer pH 8.0, 10 mM Mg acetate, unit assumed.

Data set [1] concerns the molecule itself. Nature of the data set: SEC; 10/300 GL S75 column, 20 mM HEPES pH 7.5, 300 mM NaCl, 10% glycerol, 0.5 mM TCEP; 0.24 mg NUDT15 in 500 ul. (In general: In gel filtration, larger molecules generally elute earlier.)

For `Nc1nc2c([nH]c(=O)n2[C@H]2C[C@H](O)[C@@H](COP(=O)(O)OP(=O)(O)O)O2)c(=O)[nH]1` [8-oxo-dGDP], the “phosphate release, malachite green assay” value at NUDT18 is “NUDT15 and NUDT18 have the ability to hydrolyse 8-oxo-dGTP or 8-oxo-dGDP in biochemical assays”. On to `Nc1nc2c([nH]c(=O)n2[C@H]2C[C@H](O)[C@@H](COP(=O)(O)OP(=O)(O)OP(=O)(O)O)O2)c(=O)[nH]1` [8-oxo-dGTP], for which the Km on MTH1 (0-100 uM 8-oxo-dGTP, 0.25 nM enzyme) came out at 10.2 ± 0.8 µM.

As to `Nc1nc2c(ncn2[C@H]2C[C@H](O)[C@@H](COP(=O)(O)OP(=O)(O)OP(=O)(O)O)O2)c(=O)[nH]1` [dGTP, 2′-Deoxyguanosine-5′-triphosphate], the Km on MTH1 (0-400 uM dGTP, 2 nM enzyme) was determined as 110 ± 35 µM.

B1: NUDT15 (enzyme, human, UniProt Q9NV35 1-164, looked up)
chain: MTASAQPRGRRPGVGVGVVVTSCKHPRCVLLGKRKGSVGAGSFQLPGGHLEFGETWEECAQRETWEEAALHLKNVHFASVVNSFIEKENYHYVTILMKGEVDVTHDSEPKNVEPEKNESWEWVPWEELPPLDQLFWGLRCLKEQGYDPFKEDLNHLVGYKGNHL
notes: NUDT15 (MTH2), human, full length; expression construct pNIC28hNUDT15 from the Structural Genome Consortium; The His-tag was removed by TEV protease or thrombin; Crystals grew in the presence of alpha-chymotrypsin, so the chain in the crystal may be shorter than full length; also called MTH2; MutT homologue 2; source: E. coli BL21 (DE3) T1R pRARE2, purified (HisTrap HP, gel filtration Superdex 75)
Consider B1, for which the “stoichiometry N” value in data set [1] stood at 2.

Usually Km stands for the substrate concentration at which the rate is half of its maximum. The term stoichiometry N denotes a count of units in the complex or per binding partner.
